Experimental findings from PMC6133092, “Synthesis of 2-alkylthio-N-(quinazolin-2-yl)benzenesulfonamide derivatives: anticancer activity, QSAR studies, and metabolic stability” (Monatshefte Fur Chemie, 2018) are described below.

In one data set the test system is HOP-92. The data set is described as follows: NCI-60 single dose screen, HOP-92. In kind it is cell-based. Conditions: Homo sapiens, NSCLC, single concentration 10^−5 M, read-out: IGP (inhibition growth percent) HOP-92. As for the experimental part:
(§1) Aside from above, compounds 9–14 and 17–24 were also submitted to National Cancer Institute and evaluated for the cytotoxic effects toward 60 cell lines at a single dose of 10 μM (Table 2). […] As it was summarized in Table 2, leukemia RPMI-8226 and NSCLC A549/ATCC were most sensitive to compounds 18, 22, and 24. These derivatives in 10 μM concentration inhibited the growth of approximately 50% cells belonging to the above mention cell lines.
(§2) Cytotoxicity evaluation of compounds 9–14 and 17–24 was performed at the National Cancer Institute according to NCI-60 DTP human tumor cell line screen procedure.

In a further data set the test system is SR. The data set is described as follows: NCI-60 single dose screen, SR. The format is cell-based. As to conditions: Homo sapiens, Leukemia, single concentration 10^−5 M, read-out: IGP (inhibition growth percent) SR. The method, then: as §1, §2
Another data set relates to MCF-7 (breast cancer). The data set is described as follows: MTT cell viability assay, MCF-7. In kind it is cell-based, human. Conditions: Homo sapiens, MCF7, 72 h, mean ± SD. As for the experimental part: (§3) All of the newly synthesized compounds 9–24 were evaluated for their effects on cell viability in three human cancer cell lines: HCT-116 (colon cancer), HeLa (cervical cancer), and MCF-7 (breast cancer). Cisplatin was used as reference drug. […] Considering the activity of derivatives 9–12, 15, 17, 18, and 21–24, it can be noticed that phenyl group as R^3 bring an increase of cytotoxicity in comparison with methyl in place of R^3. However, this impact seems to be the most important for compounds with the bulky group in R^1 and generally, it is less for a set of derivatives with methyl group substituted in R^1 (9–12).
(§4) All chemicals, if not stated otherwise, were obtained from Sigma-Aldrich (St. Louis, MO, USA). The MCF-7 and HeLa cell lines were purchased from Cell Lines Services (Eppelheim, Germany), the HCT-116 cell line was purchased from ATCC (ATCC-No: CCL-247). Cells were cultured in Dulbecco’s modified Eagle’s medium (DMEM) supplemented with 10% fetal bovine serum, 2 mM glutamine, 100 units/cm^3 penicillin, and 100 μg/cm^3 streptomycin. Cultures were maintained in a humidified atmosphere with 5% CO2 at 37 °C in an incubator (Heraceus, HeraCell).
(§5) Cell viability was determined using the MTT (3-(4,5-dimethylthiazol-2-yl)-2,5-diphenyltetrazolium bromide) assay. Cells were seeded in 96-well plates at a density of 5 × 10^3 cells/well and treated for 72 h with the examined compounds in the concentration range 1–100 μM (1, 10, 25, 50, and 100 μM). Following treatment, MTT (0.5 mg/cm^3) was added to the medium and cells were further incubated for 2 h at 37 °C. Cells were lysed with DMSO and the absorbance of the formazan solution was measured at 550 nm with a plate reader (Victor, 1420 multilabel counter). […] The experiment was performed in triplicate. Values are expressed as the mean ± SD of at least three independent experiments.
In general terms: Tetrazolium assays rely on reduction of a dye to a coloured formazan, in cell work by metabolically active cells.

Data set [1] is described as follows: Metabolic stability in human liver microsomes with NADPH. The format is in vitro ADME. As to conditions: pooled human liver microsomes, pH 7.4, human liver microsomes 0.5 mg/cm^3, NADPH 1 mM, 10 μM compound, 37 °C, read-out: in vitro metabolic half-life t1/2. As for the experimental part: Selected derivatives were submitted to metabolic stability study to assess their ability to remain unchanged in the presence of human metabolic enzymes. Human liver microsomes were used as they are a rich source of all common CYP isoenzymes. In vitro incubations were performed in the presence of NADPH as a cofactor and the disappearance of a derivative was followed using LC–MS technique. The in vitro metabolic half-life values are gathered in Fig. 3.
Stock solutions of studied compounds were prepared at concentration of 10 mM in DMSO. […] Incubation mixture contained 10 μM of a studied derivative, 1 mM of NADPH (Sigma-Aldrich) and 0.5 mg/cm^3 of pooled human liver microsomes (HLM, Sigma-Aldrich) in potassium phosphate buffer (0.1 M, pH 7.4). Incubation was carried out in thermostat at 37 °C and started by addition of studied compound. 50 mm^3 samples were taken at starting point and after 5, 15, 30, 45, and 60 min. Enzymatic reaction was terminated by the addition of the equal volume of ice-cold acetonitrile. Incubations were performed in triplicates, the average t1/2 and standard deviation was calculated. Control incubations were performed without NADPH to assess chemical instability. After collection, samples were immediately centrifuged (10 min, 10,000 rpm) and resulted supernatant was directly analyzed or kept in − 80 °C until LC–MS analysis. Natural logarithm of a compound over IS peak area ratio was plotted versus incubation time. Metabolic half-time (t1/2) was calculated from the slope of the linear regression.
LC–MS analysis was performed on an Agilent 1260 system coupled to SingleQuad 6120 mass spectrometer (Agilent Technologies, Santa Clara, CA, USA). Poroshell EC-C18 (2.1 mm × 150 mm, 2.7 μm, Agilent Technologies, Santa Clara, CA, USA) was used in reversed-phase mode with gradient elution starting with 5% of phase A (10 mM ammonium formate in water) and 95% of phase B (10 mM ammonium formate in acetonitrile–water mixture, 95:5 v/v). […] Total analysis time was 15 min at 40 °C, flow rate was 1 cm^3/min and the injection volume was 5 mm^3. The mass spectrometer was equipped with electrospray ion source and operated in positive ionization. Mass analyzer was set individually to each compound to detect [M+H]^+ protonated molecule. MSD parameters of the ESI source were as follows: nebulizer pressure 35 psig (N2), drying gas […] (N2), drying gas temperature 300 °C, capillary voltage 3 kV, fragmentor voltage 150 V.
A general note: Liver microsomes are vesicles of endoplasmic reticulum, rich in cytochrome P450 enzymes.

Another data set relates to HeLa (cervical cancer). The experiment in a line: MTT cell viability assay, HeLa. The format is cell-based. Conditions: Homo sapiens. As for the experimental part:
as §4, §5

The next data set deals with MCF-7. The experiment in a line: NCI-60 single dose screen, MCF-7. In kind it is cell-based. As to conditions: Homo sapiens, MCF7; Breast cancer; single concentration 10^−5 M; read-out: IGP (inhibition growth percent) MCF-7. The method, then: as §1, §2
For another data set, the system named is HCT-116 (colon cancer). The data set is described as follows: MTT cell viability assay, HCT-116. In kind it is cell-based. As to conditions: Homo sapiens, 72 h, mean ± SD. As for the experimental part:
as §4, §5

A further data set has as its system EKVX. The experiment in a line: NCI-60 single dose screen, EKVX. Conditions: Homo sapiens, NSCLC, single concentration 10^−5 M, read-out: IGP (inhibition growth percent) EKVX. In kind it is cell-based. The method, then: as §1, §2
The test system of another data set is HCT-116. The data set is described as follows: NCI-60 single dose screen, HCT-116. The format is cell-based. As to conditions: Homo sapiens, Colon cancer, single concentration 10^−5 M, read-out: IGP (inhibition growth percent) HCT-116. As for the experimental part:
as §1, §2

The next data set has as its system RPMI-8226. The experiment in a line: NCI-60 single dose screen, RPMI-8226. In kind it is cell-based. Conditions: Homo sapiens, RPMI-8226, Leukemia; single concentration 10^−5 M; read-out: IGP (inhibition growth percent) RPMI-8226. As for the experimental part: as §1, §2
For a further data set, the system named is UACC-62. The data set is described as follows: NCI-60 single dose screen, UACC-62. As to conditions: Homo sapiens, Melanoma, single concentration 10^−5 M, read-out: IGP (inhibition growth percent) UACC-62. The format is cell-based. The method, then:
as §1, §2

The test system of a further data set is MOLT-4. The experiment in a line: NCI-60 single dose screen, MOLT-4. As to conditions: Homo sapiens, Leukemia, single concentration 10^−5 M, read-out: IGP (inhibition growth percent) MOLT-4. In kind it is cell-based. As for the experimental part:
as §1, §2

A further data set has as its system UO-31. The experiment in a line: NCI-60 single dose screen, UO-31. In kind it is cell-based. Conditions: Homo sapiens, Renal cancer, single concentration 10^−5 M, read-out: IGP (inhibition growth percent) UO-31. As for the experimental part: as §1, §2
The next data set has as its system A549/ATCC. The data set is described as follows: NCI-60 single dose screen, A549/ATCC. The format is cell-based. As to conditions: Homo sapiens, A549, NSCLC; single concentration 10^−5 M; read-out: IGP (inhibition growth percent) A549/ATCC. As for the experimental part: as §1, §2
A further data set has as its system HaCaT. The data set is described as follows: Cytotoxic effect against non-carcinogenic cell line HaCaT. In kind it is cell-based. As for the experimental part: For the compounds with the strongest cytotoxicity (12, 18, 22, and 24), an investigation of cytotoxic effect against non-carcinogenic cell line HaCaT was done. […] The activity against HCT-116 was 1.7-, 1.6-, 1.5-, and 1.4-fold higher when compared with HaCaT cell line, for compounds 12, 18, 22, and 24, respectively.
as §5

Another data set deals with NCI-H522. The experiment in a line: NCI-60 single dose screen, NCI-H522. The format is cell-based. As to conditions: Homo sapiens, NSCLC, single concentration 10^−5 M, read-out: IGP (inhibition growth percent) NCI-H522. As for the experimental part: as §1, §2
In another data set the test system is PC-3. The experiment in a line: NCI-60 single dose screen, PC-3. In kind it is cell-based. Conditions: Homo sapiens, Prostate cancer, single concentration 10^−5 M, read-out: IGP (inhibition growth percent) PC-3. As for the experimental part:
as §1, §2

The test system of a further data set is HCT-116, HeLa, MCF-7. The data set is described as follows: MTT assays, mean over three tested cell lines. The format is cell-based. As to conditions: Homo sapiens, mean of HCT-116, HeLa, read-out: mean IC50 against three tested cell lines. As for the experimental part: as §3, §5
Setting [2] is: Table 4, repeats Table 1 values without SD and unit.

By IC50 is commonly meant the concentration at which inhibition is half-maximal. For orientation: melting point means the temperature, or range, at which the solid turns liquid. `Cc1cc(S(=O)(=O)Nc2nc(-c3ccccc3)c3ccccc3n2)c(SCc2ccccc2)cc1Cl` [Compound 10, 2-Benzylthio-4-chloro-5-methyl-N-(4-phenylquinazolin-2-yl)benzenesulfonamide] displayed a melting point of 192 to 198 °C. The inhibition at 10 µM in the data set with HOP-92 amounted to 17%. Also, the inhibition at 10 µM with SR is 14%. In the data set with MCF-7 (breast cancer), this compound registered an IC50 of 57 ± 1 µM. For the same compound, in [1], the half-life at 10 μM stood at 49.2 min. Also, in the data set on HeLa (cervical cancer) (MTT, 72 h, mean ± SD), it took 61 ± 2 µM to reach half-maximal inhibition (IC50). In the data set with HeLa (cervical cancer) (setting [2]), the IC50 worked out at 61 µM. For the same compound, the inhibition at 10 µM in the data set on MCF-7 is 9%. The compound further yielded an IC50 with HCT-116 (colon cancer) of 44 ± 1 µM. Also, the inhibition at 10 µM with EKVX is 6%. In the data set on HCT-116, the inhibition at 10 µM worked out at 8%. Moreover, the inhibition at 10 µM in the data set on RPMI-8226 was found to be 25%. Also, in the data set with UACC-62, the inhibition at 10 µM came to 29%. Moreover, the inhibition at 10 µM in the data set with MOLT-4 came to 25%. Further, the inhibition at 10 µM with UO-31 was found to be 5%.
On to `Cc1cc(S(=O)(=O)Nc2nc(-c3ccccc3)c3ccccc3n2)c(SCc2cc3c(cc2Cl)OCO3)cc1Cl` [Compound 12, 4-Chloro-2-(6-chlorobenzo[d][1,3]dioxol-5-ylmethylthio)-5-methyl-N-(4-phenylquinazolin-2-yl)benzenesulfonamide], for which the IC50 turned out to be 51 ± 2 µM in the data set with MCF-7 (breast cancer); 46 ± 1 µM in the data set on HeLa (cervical cancer) (MTT, 72 h, mean ± SD); 46 µM with HeLa (cervical cancer) (setting [2]); 37 ± 1 µM in the data set with HCT-116 (colon cancer); 64 ± 2 µM with HaCaT (Homo sapiens, HaCaT, non-carcinogenic cell line, mean ± SD); 44.7 µM in the data set on HCT-116, HeLa, MCF-7. In addition, in data set [1], the half-life at 10 μM amounted to 48.1 min. For the same compound, the inhibition at 10 µM with A549/ATCC was 14%; in the data set on MCF-7, 5%; with HCT-116, 6%; in the data set on RPMI-8226 it was 2%; in the data set on UACC-62, 33%; with MOLT-4, 12%. The inhibition at 10 µM in the data set on NCI-H522 is 16%; in the data set on UO-31 it was 25%; with PC-3, 14%. In addition, the “activity against HCT-116 fold higher compared with HaCaT” value with HaCaT (selectivity HCT-116 vs HaCaT) came to 1.7 fold. Moreover, the “inhibition of growth of HaCaT cells fold weaker than HeLa cells” value in the data set with HaCaT (selectivity HeLa vs HaCaT) turned out to be 1.4 fold.
